Reference: patent US6444850B1, “Fungicidial compounds having a fluorovinyloxphyenyl moiety and process for the preparation thereof” (priority 1997, dated 2002)

Legend:
Rhizoctonia solani AG-1 = test: Fungicidal activity against rice sheath blight (RSB) disease; conditions: 50 ppm, control value
Method: 50 ml of the resulting solution was sprayed on leaves of a host plant. The plant was kept at room temperature for 24 hours to let the solvent evaporate, and then, a pathogenic fungus was inoculated thereonto. The plant was held in a humidity chamber for 24 hours, transferred to an plant growth room kept at 20 to 27° C. and a relative humidity of 60 to 80% and kept to induce disease. Subsequently, the lesion area(L.A.) attacked by the pathogenic fungus was measured according to a method of Cho(Cho, K. Y., Search Report by Korea Research Institute of Chemical Technology (1989))”. This procedure was repeated twice for each test. 10% Acetone solution containing 250 ppm of Tween-20 was used as a control.
The fungicidal activity of the compound of the present invention is repressed by a control value (C.V.) calculated as; [formula]
Rhizoctonia solani AG-1 was cultured on a PDA medium(potato 200 g, dextrose 20 g, agar 20 g and distilled water 1 l) for 3 days and the agar disc (diameter 0.6 cm) was inoculated and cultured on sterilized wheat bran medium in a 1 l bottle at 26 to 28° C. for 7 days. A mycelial mass was ground using a homogenizer, inoculated uniformly on soil of a pot wherein a Nakdong rice plant having 2 or 3 leaves and an height of 5 cm grew, and kept in humidity polyvinyl chamber for 5 days to induce RSB. L.A. on a leaf sheath was measured to calculate an C.V.

Puccinia recondita = test: Fungicidal activity against wheat leaf rust (WLR) disease; format: in vivo; conditions: for C. V. (%), Fungicidal Activities against WLB at 10 ppm: Table 8 (Test Example 5); for C. V. (%) WLR: 50 ppm, control value, wheat leaf rust
Phytophthora infestans = format: in vivo; conditions: 50 ppm; control value, tomato late blight
Erysiphae graminis = test: Fungicidal activity against barley powdery mildew (BPM) disease; format: in vivo; conditions: for C. V. (%), Fungicidal activities against TLB at 10 ppm: Table 9 (Test Example 6); for C. V. (%) BPM: 50 ppm, control value, barley powdery mildew
Method: Erysiphae graminis was subcultured on a wheat plant in a laboratory. 15 g of barley seeds was sowed in a pot (diameter 6.5 cm) and cultured in a greenhouse for 7 days to obtain a barley plant having only a primary leaf. The barley plant was inoculated with spores by shaking thereover another plant infected by BPM. The inoculated barley plant was cultured in an incubator maintained at a temperature of 22 to 24° C. and a relative humidity of 50% for 7 days to induce BPM. L.A. on the leaf was measured to calculate an C.V.

[1] = test system: Pyricularia oryzae Carvara KA301; format: in vivo; conditions: for C. V. (%) RCB: 50 ppm, control value, rice blast; for C. V. (%) Fungicidal Activities against RCB at 10 ppm / C. V. (%) Fungicidal Activities against RCB at 10 ppm (TABLE 6): sprayed on Nakdong rice plant, control value from lesion area
Botrytis cinerae = test: Fungicidal activity against cucumber gray mold rot (CGM) disease; format: in vivo; conditions: 50 ppm, control value
Method: Botrytis cinerae, which was isolated from cucumber infected thereby, was inoculated on a PDA agar medium and cultured under a 12L/12D cycle at 25° C. for 15 days to form spore. The spores were scraped, filtered through a gauze and then suspended in potato dextrose liquid medium at a concentration of 1×10^6 spore/ml. The spore suspension was sprayed on a cucumber plant having one leaf. The cucumber plant was held in a humidified room at 20° C. for 3 days. L.A. on a leaf was measured to calculate an C.V.

SMILES | C. V. (%) RSB (Rhizoctonia solani AG-1) [%] | C. V. (%), Fungicidal Activities against WLB at 10 ppm (Puccinia recondita) [%] | C. V. (%) WLR (Puccinia recondita) [%] | C. V. (%) TLB (Phytophthora infestans) [%] | C. V. (%), Fungicidal activities against TLB at 10 ppm (Erysiphae graminis) [%] | C. V. (%) BPM (Erysiphae graminis) [%] | C. V. (%) RCB [1] [%] | C. V. (%) CGM (Botrytis cinerae) [%] | C. V. (%) Fungicidal Activities against RCB at 10 ppm [1] [%] | C. V. (%) Fungicidal Activities against RCB at 10 ppm (TABLE 6) [1] [%]
COC=C(C(=O)OC)c1ccccc1COc1cccc(OC(F)=C(c2ccc(C)cc2)C(F)(F)F)c1 [Compound 53] | 50 | 99 | 100 | 0 | 96 | 100 | 100 | 55 | – | –
CNC(=O)C(=COC)c1ccccc1COc1cccc(OC(F)=C(c2ccc(C)cc2)C(F)(F)F)c1 [Compound 54] | 20 | – | 16 | 20 | – | 41 | 16 | 9 | – | –
CON=C(C(=O)OC)c1ccccc1COc1cccc(OC(F)=C(c2ccc(C)cc2)C(F)(F)F)c1 [Compound 55] | 30 | – | 100 | 85 | 97 | 100 | 100 | 0 | 94 | 94
CNC(=O)C(=NOC)c1ccccc1COc1cccc(OC(F)=C(c2ccc(C)cc2)C(F)(F)F)c1 [Compound 56] | 65 | 100 | 100 | 48 | 100 | 100 | 97 | 0 | 92 | 92
COC(=O)C(=CSC)c1ccccc1COc1cccc(OC(F)=C(c2ccc(C)cc2)C(F)(F)F)c1 [Compound 57] | 45 | – | 96 | 40 | – | 98 | 53 | 9 | – | –
CCc1ccc(C(=C(F)Oc2cccc(OCc3ccccc3C(=COC)C(=O)OC)c2)C(F)(F)F)cc1 [Compound 58] | 40 | 95 | 100 | 0 | 99 | 100 | 90 | 25 | – | –
CCc1ccc(C(=C(F)Oc2cccc(OCc3ccccc3C(=COC)C(=O)NC)c2)C(F)(F)F)cc1 [Compound 59] | 33 | – | 0 | 33 | – | 0 | 12 | 0 | – | –
CCc1ccc(C(=C(F)Oc2cccc(OCc3ccccc3C(=NOC)C(=O)OC)c2)C(F)(F)F)cc1 [Compound 60] | 40 | 93 | 98 | 18 | 97 | 100 | 0 | 0 | – | –
CCc1ccc(C(=C(F)Oc2cccc(OCc3ccccc3C(=NOC)C(=O)NC)c2)C(F)(F)F)cc1 [Compound 61] | 50 | 100 | 100 | 64 | 100 | 100 | 100 | 5 | 96 | 96
CCCCc1ccc(C(=C(F)Oc2cccc(OCc3ccccc3C(=COC)C(=O)OC)c2)C(F)(F)F)cc1 [Compound 62] | 35 | – | 93 | 3 | – | 98 | 0 | 28 | – | –
COC=C(C(=O)OC)c1ccccc1COc1cccc(OC(F)=C(c2ccc(C)c(C)c2)C(F)(F)F)c1 [Compound 63] | 40 | – | 100 | 25 | 100 | 100 | 75 | 25 | – | –
CNC(=O)/C(=C/OC)c1ccccc1COc1cccc(OC(F)=C(c2ccc(C)c(C)c2)C(F)(F)F)c1 [Compound 64] | 0 | – | 0 | 22 | – | 0 | 16 | 0 | – | –
CO/N=C(/C(=O)OC)c1ccccc1COc1cccc(OC(F)=C(c2ccc(C)c(C)c2)C(F)(F)F)c1 [Compound 65] | 90 | 100 | 99 | 33 | 94 | 99 | 91 | 16 | – | –
CNC(=O)/C(=N/OC)c1ccccc1COc1cccc(OC(F)=C(c2ccc(C)c(C)c2)C(F)(F)F)c1 [Compound 66] | 40 | 100 | 100 | 18 | 100 | 100 | 98 | 0 | 100 | 100
CO/C=C(/C(=O)OC)c1ccccc1COc1cccc(OC(F)=C(c2cc(C)cc(C)c2)C(F)(F)F)c1 [Compound 67] | 50 | – | 100 | 25 | 100 | 100 | 80 | 16 | – | –
CNC(=O)/C(=C/OC)c1ccccc1COc1cccc(OC(F)=C(c2cc(C)cc(C)c2)C(F)(F)F)c1 [Compound 68] | 0 | – | 56 | 22 | – | 0 | 0 | 0 | – | –
CNC(=O)/C(=N/OC)c1ccccc1COc1cccc(OC(F)=C(c2cc(C)cc(C)c2)C(F)(F)F)c1 [Compound 70] | 0 | 100 | 100 | 0 | 100 | 100 | 100 | 0 | 100 | 100
COC=C(C(=O)OC)c1ccccc1COc1cccc(OC(F)=C(c2cccc(OC)c2)C(F)(F)F)c1 [Compound 71] | 40 | 95 | 100 | 62 | 100 | 100 | 90 | 41 | – | –
CNC(=O)C(=COC)c1ccccc1COc1cccc(OC(F)=C(c2cccc(OC)c2)C(F)(F)F)c1 [Compound 72] | 33 | – | 0 | 33 | – | 0 | 0 | 0 | – | –
CON=C(C(=O)OC)c1ccccc1COc1cccc(OC(F)=C(c2cccc(OC)c2)C(F)(F)F)c1 [Compound 73] | 92 | 96 | 98 | 60 | 88 | 93 | 93 | 9 | – | –
CNC(=O)C(=NOC)c1ccccc1COc1cccc(OC(F)=C(c2cccc(OC)c2)C(F)(F)F)c1 [Compound 74] | 70 | 100 | 100 | 64 | 100 | 100 | 100 | 52 | 93 | 93
CNC(=O)C(=COC)c1ccccc1COc1cccc(OC(F)=C(c2ccc(OC)cc2)C(F)(F)F)c1 [Compound 75] | 40 | – | 0 | 33 | – | 0 | 0 | 0 | – | –
CON=C(C(=O)OC)c1ccccc1COc1cccc(OC(F)=C(c2ccc(OC)cc2)C(F)(F)F)c1 [Compound 76] | 90 | 99 | 96 | 44 | 96 | 99 | 63 | 0 | – | –
